# pIC50: −log10 of the molar value.
# Target: IGF1R (Homo sapiens, UniProt P08069)
# Test: Cellular IGF-1R assay: inhibition of IGF1R phosphorylation in transduced Hek293 cells, capture ELISA (MSD)
# Assay type: cell-based
# Set-up: Hek293 cells transduced with the corresponding receptors; expressed in transfected cells; host or cells: Hek293 (Hek293-IGF1R)
# Procedure: In this assay the activity of the compounds of the invention against Insulin-like growth factor I (IGF-1) induced autophosphorylation of the IGF-IR is determined. The assay is conducted as follows: Compound-mediated inhibition of IGF1R and INSR phosphorylation in Hek293 cells transduced with the corresponding receptors is assessed in a capture ELISA format using the MSD (Meso Scale Discovery) platform. Briefly, 30′000 cells washed and diluted in starvation medium (DMEM high glucose supplemented with 0.1% BSA) are seeded in 90 μL per well into 96-well plates pre-coated with poly-D-lysine (0.1 mg/mL in PBS/0). After 24 h incubation at 37° C. and 5% CO2, dose-response effects are determined with 3-fold serial compound dilutions, starting at 10 μM. The final vehicle concentration is 0.1% DMSO in all wells. Following pre-incubation with compounds for 1 h, receptor phosphorylation is triggered by a 10 min exposure to 1.0 ng/μL IGF for Hek293-IGF1R cells, and 5.0 ng/μL insulin for Hek293-InsR cells. Cell lysis is achieved by addition of 80 μL MSD lysis buffer per aspirated well, incubation on ice for 20 min, and a freeze-thaw cycle. Target phosphorylation is then assessed by transferring volumes corresponding to approx. 6 μg Hek293-IGF1R or 0.6 μg Hek293-InsR lysates to MSD assay plates pre-coated with total-IGF1R or total-InsR Abs, respectively. After incubation for 2 h at rt, wells are exposed for 1 hr to a rabbit monoclonal antibody (CST #3024, 1:1000) detecting pIGF1R(Tyr1135/1136) as well as pINSR(Tyr1150/1151). Immune complexes are detected by a SULFO-Tag™-coupled anti-rabbit IgG antibody in the presence of 150 μL MSD read-buffer. Light emission at 620 nm triggered by application of electric current is recorded on a MSD SectorImager 6000. Acquired raw data (mean Ru-ECL units) are processed in an Excel analysis template. The plate blank (MSD lysis buffer) is subtracted from all data points. The effect of a particular test compound concentration on receptor phosphorylation is expressed relative to the window defined by ligand-stimulated vs unstimulated control cells (set as 100%). IC50 values [nM] are determined using 4-parametric curve-fitting (XLfit software, V4.3.2). Alternatively, the assay can be conducted with a slightly different format; Compound-mediated inhibition of IGF-1R and InsR phosphorylation in HEK293 cells overexpressing the corresponding receptors were assessed by quantitative Western blot using an Odyssey infrared imager as readout.
# Compound-mediated inhibition of IGF1R and INSR phosphorylation in Hek293 cells transduced with the corresponding receptors is assessed in a capture ELISA format using the MSD (Meso Scale Discovery) platform. Briefly, 30′000 cells washed and diluted in starvation medium (DMEM high glucose supplemented with 0.1% BSA) are seeded in 90 μL per well into 96-well plates pre-coated with poly-D-lysine (0.1 mg/mL in PBS/O). After 24 h incubation at 37° C. and 5% CO2, dose-response effects are determined with 3-fold serial compound dilutions, starting at 10 μM. The final vehicle concentration is 0.1% DMSO in all wells. Following pre-incubation with compounds for 1 h, receptor phosphorylation is triggered by a 10 min exposure to 1.0 ng/μL IGF for Hek293-IGF1R cells, and 5.0 ng/μL insulin for Hek293-InsR cells. Cell lysis is achieved by addition of 80 μL MSD lysis buffer per aspirated well, incubation on ice for 20 min, and a freeze-thaw cycle. Target phosphorylation is then assessed by transferring volumes corresponding to approx. 6 μg Hek293-IGF1R or 0.6 μg Hek293-lnsR lysates to MSD assay plates pre-coated with total-IGF1R or total-lnsR Abs, respectively. After incubation for 2 h at rt, wells are exposed for 1 hr to a rabbit monoclonal antibody (CST #3024, 1:1000) detecting pIGF1R(Tyr1135/1136) as well as pINSR(Tyr1150/1151). Immune complexes are detected by a SULFO-Tag™-coupled anti-rabbit IgG antibody in the presence of 150 μL MSD read-buffer. […]
# Chain of IGF1R (P08069 31-1367): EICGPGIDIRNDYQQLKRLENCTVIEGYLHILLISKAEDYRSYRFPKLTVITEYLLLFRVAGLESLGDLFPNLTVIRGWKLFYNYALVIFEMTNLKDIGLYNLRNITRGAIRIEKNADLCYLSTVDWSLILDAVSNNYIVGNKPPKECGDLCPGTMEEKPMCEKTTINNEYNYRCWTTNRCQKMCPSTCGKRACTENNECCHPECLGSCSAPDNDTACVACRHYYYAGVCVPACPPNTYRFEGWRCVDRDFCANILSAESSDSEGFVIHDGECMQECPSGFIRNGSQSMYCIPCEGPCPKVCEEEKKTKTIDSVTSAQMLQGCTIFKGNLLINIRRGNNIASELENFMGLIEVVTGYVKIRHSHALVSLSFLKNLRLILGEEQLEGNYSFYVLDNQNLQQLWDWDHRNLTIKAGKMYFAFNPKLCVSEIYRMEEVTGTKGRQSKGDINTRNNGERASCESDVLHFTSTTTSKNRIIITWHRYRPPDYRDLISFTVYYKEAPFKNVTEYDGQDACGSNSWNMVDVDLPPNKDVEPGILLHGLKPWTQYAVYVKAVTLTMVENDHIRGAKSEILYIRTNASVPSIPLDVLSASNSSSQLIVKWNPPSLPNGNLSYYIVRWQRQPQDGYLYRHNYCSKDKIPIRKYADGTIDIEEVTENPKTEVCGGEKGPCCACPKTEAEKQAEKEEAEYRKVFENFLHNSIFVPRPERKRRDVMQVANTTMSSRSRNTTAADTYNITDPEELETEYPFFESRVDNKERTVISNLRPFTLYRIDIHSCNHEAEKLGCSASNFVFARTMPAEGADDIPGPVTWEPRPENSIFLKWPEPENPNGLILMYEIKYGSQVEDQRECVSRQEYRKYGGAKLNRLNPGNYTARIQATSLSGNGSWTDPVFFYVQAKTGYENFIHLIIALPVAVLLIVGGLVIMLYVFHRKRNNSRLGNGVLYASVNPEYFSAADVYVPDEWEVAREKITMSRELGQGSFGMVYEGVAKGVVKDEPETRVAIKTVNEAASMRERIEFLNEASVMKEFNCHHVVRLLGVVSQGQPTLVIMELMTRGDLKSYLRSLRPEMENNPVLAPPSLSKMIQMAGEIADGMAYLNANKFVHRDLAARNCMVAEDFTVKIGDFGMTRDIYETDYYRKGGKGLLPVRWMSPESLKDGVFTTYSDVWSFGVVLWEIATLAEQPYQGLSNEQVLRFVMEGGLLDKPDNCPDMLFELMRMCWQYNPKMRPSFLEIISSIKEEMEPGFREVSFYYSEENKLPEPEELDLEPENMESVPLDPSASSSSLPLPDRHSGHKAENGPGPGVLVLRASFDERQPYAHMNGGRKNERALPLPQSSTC
row,pIC50,SMILES
1,8.15,"Nc1ncnc2c1c(-c1ccc3c(c1)OC(C1CCCO1)CC3)cn2C1CC(CN2CCS(=O)(=O)CC2)C1 (single isomer, unassigned) [Example 31, (u)-7-[3-(1,1-Dioxo-1-thiomorpholin-4-ylmethyl)-cyclobutyl]-5-[2-(tetrahydro-furan-2-yl)-chroman-7-yl]-7H-pyrrolo[2,3-d]pyrimidin-4-ylamine]"
2,7.44,"CCOCC1CCc2ccc(-c3cn([C@H]4C[C@@H](CN5CC[S+]([O-])CC5)C4)c4ncnc(N)c34)cc2O1 (relative stereo) [Example 50, 5-(2-Ethoxymethyl-chroman-7-yl)-7-[cis-3-(1-oxo-thiomorpholin-4-ylmethyl)-cyclobutyl]-7H-pyrrolo[2,3-d]pyrimidin-4-ylamine]"
3,7.59,"Cc1nccn1C[C@H]1C[C@@H](c2nc(-c3ccc4c(c3)OC(c3ccccc3)CC4)c3c(N)nccn32)C1 (mixture of isomers) [Example 7, (R,S)-3-[cis-3-(2-Methyl-imidazol-1-ylmethyl)-cyclobutyl]-1-(2-phenyl-chroman-7-yl)-imidazo[1,5-a]pyrazin-8-ylamine]"
4,6.75,"Nc1nccn2c1c(-c1ccc3c(c1)O[C@@H](c1ccccc1)C=C3)nc2[C@H]1C[C@@H](CO)C1 (relative stereo) [Example 22, (R,S)-{cis-3-[8-Amino-1-(2-phenyl-2H-chromen-7-yl)-imidazo[1,5-a]pyrazin-3-yl]-cyclobutyl}-methanol]"
5,6.26,"Nc1ncnc2c1c(-c1ccc3c(c1)OC(c1ccccn1)CC3)cn2[C@H]1C[C@@](O)(CO)C1 (mixture of isomers) [Example 56, (±)-(E)-3-(4-amino-5-(2-(pyridin-2-yl)chroman-7-yl)-7H-pyrrolo[2,3-d]pyrimidin-7-yl)-1-(hydroxymethyl)cyclobutanol]"
6,7.23,"Nc1ncnc2c1c(-c1ccc3c(c1)OC(C1CCCO1)CC3)cn2[C@H]1CC[C@@H](N2CCS(=O)(=O)CC2)CC1 (mixture of isomers) [Example 64, (±)-7-[cis-4-(1,1-dioxo-1λ6-thiomorpholin-4-yl)-cyclohexyl]-5-[2-trans-(tetrahydro-furan-2-yl)chroman-7-yl]-7H-pyrrolo[2,3-d]pyrimidin-4-ylamine]"
7,7.72,"Nc1ncnc2c1c(-c1ccc3c(c1)O[C@H](c1ccccc1)CC3)cn2[C@H]1C[C@@H](CO)C1 [Example 11, {cis-3-[4-Amino-5-((S)-2-phenyl-chroman-7-yl)-pyrrolo[2,3-d]pyrimidin-7-yl]-cyclobutyl}-methanol]"
8,7.47,"Nc1ncnc2c1c(-c1ccc3c(c1)OC(c1ccccc1)CC3)cn2[C@H]1C[C@@H](CN2CCNC(=O)C2)C1 (mixture of isomers) [Example 28, (R,S)-4-{3-[4-amino-5-(2-phenyl-chroman-7-yl)-pyrrolo[2,3-d]pyrimidin-7-yl]-cyclobutylmethyl}-piperazin-2-one]"
9,7.02,"Nc1ncnc2c1c(-c1ccc3c(c1)OC(c1ccccc1)CC3)cn2[C@H]1C[C@@](O)(CO)C1 (mixture of isomers) [Example 8, (R,S)-(E)-3-[4-Amino-5-(2-phenyl-chroman-7-yl)-pyrrolo[2,3-d]pyrimidin-7-yl]-1-hydroxymethyl-cyclobutanol]"
10,7.66 to 7.96,"Nc1ncnc2c1c(-c1ccc3c(c1)OC(c1ccccc1)CC3)cn2[C@H]1C[C@@H](CO)C1 (mixture of isomers) [Example 1, (R,S)-{cis-3-[4-Amino-5-(2-phenyl-chroman-7-yl)-pyrrolo[2,3-d]pyrimidin-7-yl]-cyclobutyl}-methanol]"
11,7.41,"NC[C@H]1C[C@@H](n2cc(-c3ccc4c(c3)OC(c3ccccc3)CC4)c3c(N)ncnc32)C1 (mixture of isomers) [Example 13, (R,S)-7-(cis-3-Aminomethyl-cyclobutyl)-5-(2-phenyl-chroman-7-yl)-7H-pyrrolo[2,3-d]pyrimidin-4-ylamine]"
12,6.75,"Nc1ncnc2c1c(-c1ccc3c(c1)OC(c1ccccc1)=CC3)cn2[C@H]1C[C@@H](CN2CCS(=O)(=O)CC2)C1 [Example 20, 7-[cis-3-(1,1-Dioxo-1-thiomorpholin-4-ylmethyl)-cyclobutyl]-5-(2-phenyl-4H-chromen-7-yl)-7H-pyrrolo[2,3-d]pyrimidin-4-ylamine]"
